Data reported in patent US20240051936A1, “ISOINDOLINONE COMPOUNDS” (Monte Rosa Therapeutics, Inc., priority 2021, published 2024).
Read-outs that look alike come from different tables or passages of the source.

Tests used:
[1] = target: Full length wild-type cereblon CRBN (Homo sapiens (Human), UniProt Q96SW2); test: Fluorescence polarization (FP) assay, cereblon binding
Procedure: Compound activity was monitored in a fluorescence polarization (FP) homogeneous assay using 1-[5-({2-[2-(2-{[2-(2,6-dioxopiperidin-3-yl)-1,3-dioxo-2,3-dihydro-1H-isoindol-4-yl]oxy}acetamido)ethoxy]ethyl}carbamoyl)pentyl]-3,3-dimethyl-2-[(1E,3E)-5-[(2E)-1,3,3-trimethyl-5-sulfo-2,3-dihydro-1H-indol-2-ylidene]penta-1,3-dien-1-yl]-3H-indol-1-ium-5-sulfonate as a fluorescent probe. Unless otherwise stated, all reagents were purchased from Sigma Aldrich. Enzymatic reactions were conducted in Perkin-Elmer Black 384 well ProxiPlate Plus (catalogue no. 6008269) in 10 sL total volume. Full length wild-type cereblon CRBN (80.0 nM, 10 sL) was incubated in assay buffer containing 20 mM HEPES (pH 8.0), […], 0.5 mM TCEP and 0.05% Tween 20 in the presence or absence of compound (300 nL). Inhibitors were stored as 10 mM DMSO stocks in an inert environment (low humidity, dark, low oxygen, room temperature) using the Storage Pod System.
Compounds and DMSO were dispensed using the Echo E5XX (Labcyte Inc. USA) to give concentrations from 300 to 0.937 or 3000 to 9.3 nM in a 12 data point curve. […] Following incubation at room temperature for 30 min, the assay was initiated by dispensing the probe to a final concentration of 5 nM (2.5 nL of a 20 μM stock) using the Echo E5XX. FP was measured after a period of 12 hours using a Pherastar plate reader (BMG Labtech, Germany) exciting at 590 nm and measuring the amount of parallel and perpendicular light at 675 nm. The FP signal was subsequently normalized to the no-compound control (i.e., DMSO). Analysis and IC50 values were derived using Dotmatics (Dotmatics UK) software.

[2] = target: GSPT1 (Homo sapiens (Human), UniProt P15170+Q96SW2); test: Immunofluorescence assay for GSPT1 degradation in CAL-Si cells; type: cell-based; conditions: CAL-Si cells
Sequence of GSPT1 (P15170 whole entry): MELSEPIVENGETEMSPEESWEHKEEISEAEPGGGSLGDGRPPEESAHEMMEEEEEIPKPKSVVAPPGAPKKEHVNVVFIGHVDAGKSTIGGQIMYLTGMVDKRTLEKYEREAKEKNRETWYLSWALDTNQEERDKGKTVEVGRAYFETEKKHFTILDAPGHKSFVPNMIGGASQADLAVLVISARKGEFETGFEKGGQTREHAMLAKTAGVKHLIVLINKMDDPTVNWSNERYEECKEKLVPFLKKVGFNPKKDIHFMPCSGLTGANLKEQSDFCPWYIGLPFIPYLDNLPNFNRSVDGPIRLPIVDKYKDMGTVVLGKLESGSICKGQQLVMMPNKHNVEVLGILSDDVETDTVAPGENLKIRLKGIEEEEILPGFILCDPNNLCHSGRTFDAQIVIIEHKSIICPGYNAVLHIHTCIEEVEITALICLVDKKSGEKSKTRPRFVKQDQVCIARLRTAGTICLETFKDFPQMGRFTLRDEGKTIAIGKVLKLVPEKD
Sequence of GSPT1 (Q96SW2 whole entry): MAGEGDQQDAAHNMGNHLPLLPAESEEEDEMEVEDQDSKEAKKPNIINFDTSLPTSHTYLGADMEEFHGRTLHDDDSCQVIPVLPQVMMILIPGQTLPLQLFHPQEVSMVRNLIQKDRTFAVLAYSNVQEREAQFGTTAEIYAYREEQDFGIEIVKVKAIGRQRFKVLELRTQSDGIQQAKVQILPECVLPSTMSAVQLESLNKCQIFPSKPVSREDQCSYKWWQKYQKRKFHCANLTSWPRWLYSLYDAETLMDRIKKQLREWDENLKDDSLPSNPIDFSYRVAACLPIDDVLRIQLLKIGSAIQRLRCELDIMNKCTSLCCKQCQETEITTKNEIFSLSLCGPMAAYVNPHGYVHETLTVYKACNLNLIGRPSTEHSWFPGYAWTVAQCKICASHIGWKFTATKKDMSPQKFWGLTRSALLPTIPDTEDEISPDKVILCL
Sequence of GSPT1 (Q16531 whole entry partner): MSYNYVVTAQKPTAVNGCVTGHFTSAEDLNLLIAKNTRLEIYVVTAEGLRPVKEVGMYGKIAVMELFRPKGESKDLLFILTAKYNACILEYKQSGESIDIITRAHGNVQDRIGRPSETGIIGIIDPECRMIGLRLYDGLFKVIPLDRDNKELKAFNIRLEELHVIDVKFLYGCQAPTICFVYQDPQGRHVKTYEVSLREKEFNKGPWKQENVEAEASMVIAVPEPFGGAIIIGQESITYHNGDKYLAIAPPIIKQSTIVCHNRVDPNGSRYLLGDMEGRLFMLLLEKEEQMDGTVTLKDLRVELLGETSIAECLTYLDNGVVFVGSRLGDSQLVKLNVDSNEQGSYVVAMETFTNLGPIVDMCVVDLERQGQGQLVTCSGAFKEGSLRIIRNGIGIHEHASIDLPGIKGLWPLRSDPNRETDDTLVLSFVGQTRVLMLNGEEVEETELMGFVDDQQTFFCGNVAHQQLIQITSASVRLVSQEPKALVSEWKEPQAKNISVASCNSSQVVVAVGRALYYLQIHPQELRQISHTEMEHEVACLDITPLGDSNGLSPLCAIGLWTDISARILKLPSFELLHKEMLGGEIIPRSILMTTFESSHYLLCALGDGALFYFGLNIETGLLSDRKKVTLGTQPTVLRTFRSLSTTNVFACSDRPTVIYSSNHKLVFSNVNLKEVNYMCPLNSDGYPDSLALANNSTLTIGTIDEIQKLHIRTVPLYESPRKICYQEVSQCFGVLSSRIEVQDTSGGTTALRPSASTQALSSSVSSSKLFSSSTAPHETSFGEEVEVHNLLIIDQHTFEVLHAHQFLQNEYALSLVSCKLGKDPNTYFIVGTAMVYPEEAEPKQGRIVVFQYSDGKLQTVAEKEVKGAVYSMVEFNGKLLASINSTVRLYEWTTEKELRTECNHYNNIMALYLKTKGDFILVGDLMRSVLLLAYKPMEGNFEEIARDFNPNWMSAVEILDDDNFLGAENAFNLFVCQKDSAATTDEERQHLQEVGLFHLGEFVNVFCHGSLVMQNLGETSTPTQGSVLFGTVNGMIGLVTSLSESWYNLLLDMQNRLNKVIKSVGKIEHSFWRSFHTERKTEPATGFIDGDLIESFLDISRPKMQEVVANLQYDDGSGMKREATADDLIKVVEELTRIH
Procedure: The compounds were tested in an immunofluorescence assay for their activity to bind to degrade GSPT1. CAL-Si cells were purchased from DSMZ (cat. Number ACC302), sub-cultured in 90% Dulbecco's MEM (4.5 g/L glucose, Gibco 11965)+10% heat inactivated FBS (BioConcept, 2-01F136I) and incubated at 37° C., 5% CO2. For the assay, imaging microtiterplate Cell Carrier 96 Ultra (Perkin Elmer 6055302) were pre-coated with Fibronectin (Sigma F085, 30 μl at 0.2 μg/ml) in PBS (100 μl, Gibco 14190) for 45 min at room temperature, rinsed with PBS and CAL-Si cells (30K cells/well) were plated and let to adhere overnight. Cells were treated with compounds typically using a serial dilution ranging from 30 μM to 0.1 nM for 6 hours. Compounds were stored at 10 mM DMSO stocks. Vehicle (DMSO), positive (CC-885, 10 μM) and rescue controls (positive control plus 0.2 μM bortezomib) were also included at this stage. Cells were subsequently rinsed with PBS and fixed in 10% Formalin solution (50 μl, Sigma HT5011)) for 20 mins at room temperature. Following three consecutive PBS washes (100 μl), cells were permeabilized in 0.1% Triton X-100 in PBS (Sigma 93443, 50 μl) for 15 mins at room temperature. Following three further PBS washes, 50 μl blocking buffer (1% BSA, Sigma A4503, in PBS) was added for 45 min for signal-to-noise reduction.
Primary antibody (human GSPT1, Sigma HPA052488) was diluted in blocking buffer (dil.1/300, 35 μl/well) and incubated with the cells overnight at 4° C. After three PBS washes, Alexa-fluor 488 coupled secondary antibodies (Invitrogen, A32731, dil.1/1000), Alexa-fluor 647-Phalloïdin (Invitrogen, A22287, dil.1/200) and DAPI (Thermo, #62248, dil.1/1000) were diluted in blocking buffer and incubated with the samples for 2 hours at room temperature. After three final PBS washes, samples were conserved in 100 μl PBS in the dark, until measurement. Image acquisition was performed on the Operetta High-Content Imager (Perkin-Elmer). Fluorescence intensity of Alexa-Fluor 488 (GSPT1), Alexa-Fluor 647 (Actin) and DAPI (Nucleus) were measured. For the determination of GSPT1 DC50 values, a custom algorithm implemented in the PerkinElmer image analysis software Harmony-Acapella® was developed. After user-defined setting of adjustment parameters, the analysis was run identically without human intervention for all image fields. DAPI staining of the nuclei was used to determine the location of cells using standard nuclei detection modules. Segmentation artifacts were removed by threshold-based filters for area, roundness and intensity. The outline of the cells was determined analogously from the sum of the normalized, smoothed DAPI and Actin channel, starting from each nucleus. The Alexa-Fluor 488 (GSPT1) signal intensity in each cell was finally measured, in order to obtain a Mean intensity per cell. GSPT1 degradation (DC50) was calculated after normalization to controls and data import in CDD vault Database, using non-linear regression.

[3] = wild-type CRBN 80.0 nM, probe 5 nM, FP measured after 12 hours, read-out: rFP IC50
[4] = treated 6 hours, read-out: Code, activity for GSPT1 degradation (DC50)
[5] = cereblon binding, bound, read-out: IC50 value
[6] = compounds with code A, read-out: DC50 value code

Sequence of Full length wild-type cereblon CRBN (Q96SW2 whole entry): as the sequence (Q96SW2 whole entry) above

SMILES	IC50 [1, 3]	DC50 [2, 4]	IC50 [1, 5]	DC50 [2, 6]
O=C1CCC(N2Cc3c(F)cc(COC(=O)Nc4cc(Cl)cc(OC(F)F)c4)cc3C2=O)C(=O)N1 (stereo not drawn) [Compound 34, (2-(2,6-dioxopiperidin-3-yl)-7-fluoro-3-oxoisoindolin-5-yl)methyl(3-chloro-5-(difluoromethoxy)phenyl)carbamate]	> 1.9 µM	0.03 to 0.3 µM		
O=C1CCC(N2Cc3c(F)cc(COC(=O)Nc4cccc(OC(F)F)c4)cc3C2=O)C(=O)N1 (stereo not drawn) [Compound 26, (2-(2,6-dioxopiperidin-3-yl)-7-fluoro-3-oxoisoindolin-5-yl)methyl(3-(difluoromethoxy)phenyl)carbamate]	1.2 to 1.9 µM	0.03 to 0.3 µM	< 0.6 µM	
O=C1CCC(N2Cc3c(F)cc(COC(=O)Nc4cc(Cl)cc(Cl)c4)cc3C2=O)C(=O)N1 (stereo not drawn) [Compound 28, (2-(2,6-dioxopiperidin-3-yl)-7-fluoro-3-oxoisoindolin-5-yl)methyl(3,5-dichlorophenyl)carbamate]	> 1.9 µM	0.03 to 0.3 µM		
O=C1CCC(N2Cc3c(F)cc(COC(=O)Nc4cc(F)cc(OC(F)(F)F)c4)cc3C2=O)C(=O)N1 (stereo not drawn) [Compound 12, (2-(2,6-dioxopiperidin-3-yl)-7-fluoro-3-oxoisoindolin-5-yl)methyl(3-fluoro-5-(trifluoromethoxy)phenyl)carbamate]	> 1.9 µM	0.03 to 0.3 µM		
COc1cc(COC(=O)Nc2ccc(C)c(OC(F)F)c2)cc2c1CN(C1CCC(=O)NC1=O)C2=O (stereo not drawn) [Compound 48, (2-(2,6-dioxopiperidin-3-yl)-7-methoxy-3-oxoisoindolin-5-yl)methyl (3-(difluoromethoxy)-4-methylphenyl) carbamate]	1.2 to 1.9 µM	0.03 to 0.3 µM	< 0.6 µM	
COc1cc(COC(=O)Nc2ccc(N3CCCCC3C)nc2)cc2c1CN(C1CCC(=O)NC1=O)C2=O (stereo not drawn) [Compound 38, (2-(2,6-dioxopiperidin-3-yl)-7-methoxy-3-oxoisoindolin-5-yl)methyl(6-(2-methylpiperidin-1-yl)pyridin-3-yl)carbamate]	≤ 0.6 µM	< 0.03 µM	< 0.6 µM	< 0.03 µM
O=C1CCC(N2Cc3c(F)cc(COC(=O)Nc4cc(-c5ccccc5)ccn4)cc3C2=O)C(=O)N1 (stereo not drawn) [Compound 24, (2-(2,6-dioxopiperidin-3-yl)-7-fluoro-3-oxoisoindolin-5-yl)methyl(4-phenylpyridin-2-yl)carbamate]	> 1.9 µM	0.03 to 0.3 µM		
COc1cc(COC(=O)Nc2ccc(C3(C)CC3)cc2)cc2c1CN(C1CCC(=O)NC1=O)C2=O (stereo not drawn) [Compound 40, (2-(2,6-dioxopiperidin-3-yl)-7-methoxy-3-oxoisoindolin-5-yl)methyl (4-(1-methylcyclopropyl)phenyl)carbamate]	≤ 0.6 µM	< 0.03 µM	< 0.6 µM	< 0.03 µM
COc1cc(COC(=O)Nc2cnc(-c3ccccc3)c(C)c2)cc2c1CN(C1CCC(=O)NC1=O)C2=O (stereo not drawn) [Compound 59, (2-(2,6-dioxopiperidin-3-yl)-7-methoxy-3-oxoisoindolin-5-yl)methyl(5-methyl-6-phenylpyridin-3-yl)carbamate]	≤ 0.6 µM	< 0.03 µM	< 0.6 µM	< 0.03 µM
COc1cc(COC(=O)Nc2ccc(-c3ccccc3F)nc2)cc2c1CN(C1CCC(=O)NC1=O)C2=O (stereo not drawn) [Compound 36, (2-(2,6-dioxopiperidin-3-yl)-7-methoxy-3-oxoisoindolin-5-yl)methyl (6-(2-fluorophenyl)pyridin-3-yl)carbamate]	1.2 to 1.9 µM	< 0.03 µM	< 0.6 µM	< 0.03 µM

The next lines start with the values.

IC50 [1, 3]	DC50 [2, 4]	IC50 [1, 5]	DC50 [2, 6]	SMILES
≤ 0.6 µM	0.03 to 0.3 µM	< 0.6 µM		COc1cc(COC(=O)Nc2cc(C)cc(C)c2)cc2c1CN(C1CCC(=O)NC1=O)C2=O (stereo not drawn) [Compound 52, (2-(2,6-dioxopiperidin-3-yl)-7-methoxy-3-oxoisoindolin-5-yl)methyl (3,5-dimethylphenyl)carbamate]
≤ 0.6 µM	< 0.03 µM	< 0.6 µM	< 0.03 µM	Cc1ccccc1-c1ccc(NC(=O)OCc2cc(F)c3c(c2)C(=O)N(C2CCC(=O)NC2=O)C3)cn1 (stereo not drawn) [Compound 19, (2-(2,6-dioxopiperidin-3-yl)-7-fluoro-3-oxoisoindolin-5-yl)methyl (6-(o-tolyl)pyridin-3-yl)carbamate]
0.6 to 1.2 µM	< 0.03 µM	< 0.6 µM	< 0.03 µM	COc1cc(COC(=O)Nc2ccc(C(C)(C)C)cc2)cc2c1CN(C1CCC(=O)NC1=O)C2=O (stereo not drawn) [Compound 43, (2-(2,6-dioxopiperidin-3-yl)-7-methoxy-3-oxoisoindolin-5-yl)methyl (4-(tert-butyl)phenyl)carbamate]
≤ 0.6 µM	< 0.03 µM	< 0.6 µM	< 0.03 µM	COc1cc(COC(=O)Nc2ccc(-c3ccccc3C)nc2)cc2c1CN(C1CCC(=O)NC1=O)C2=O (stereo not drawn) [Compound 60, (2-(2,6-dioxopiperidin-3-yl)-7-methoxy-3-oxoisoindolin-5-yl)methyl (6-(o-tolyl)pyridin-3-yl)carbamate]
> 1.9 µM	0.03 to 0.3 µM			O=C1CCC(N2Cc3c(F)cc(COC(=O)Nc4cccc(OC(F)(F)F)c4)cc3C2=O)C(=O)N1 (stereo not drawn) [Compound 15, (2-(2,6-dioxopiperidin-3-yl)-7-fluoro-3-oxoisoindolin-5-yl)methyl (3-(trifluoromethoxy)phenyl)carbamate]
> 1.9 µM	0.03 to 0.3 µM			Cc1ccc(NC(=O)OCc2cc(Cl)c3c(c2)C(=O)N(C2CCC(=O)NC2=O)C3)cc1Cl (stereo not drawn) [Compound 4, (7-chloro-2-(2,6-dioxopiperidin-3-yl)-3-oxoisoindolin-5-yl)methyl (3-chloro-4-methylphenyl)carbamate]
≤ 0.6 µM	< 0.03 µM	< 0.6 µM	< 0.03 µM	COc1cc(COC(=O)Nc2ccc(C(C)(C)C)nc2)cc2c1CN(C1CCC(=O)NC1=O)C2=O (stereo not drawn) [Compound 44, (2-(2,6-dioxopiperidin-3-yl)-7-methoxy-3-oxoisoindolin-5-yl)methyl (6-(tert-butyl)pyridin-3-yl)carbamate]
1.2 to 1.9 µM	0.03 to 0.3 µM	< 0.6 µM		O=C1CCC(N2Cc3c(F)cc(COC(=O)Nc4ccc(F)c(OC(F)F)c4)cc3C2=O)C(=O)N1 (stereo not drawn) [Compound 7, (2-(2,6-dioxopiperidin-3-yl)-7-fluoro-3-oxoisoindolin-5-yl)methyl(3-(difluoromethoxy)-4-fluorophenyl)carbamate]
≤ 0.6 µM	< 0.03 µM	< 0.6 µM	< 0.03 µM	COc1cc(COC(=O)Nc2cccc(OC(F)F)c2)cc2c1CN(C1CCC(=O)NC1=O)C2=O (stereo not drawn) [Compound 53, (2-(2,6-dioxopiperidin-3-yl)-7-methoxy-3-oxoisoindolin-5-yl)methyl (3-(difluoromethoxy)phenyl)carbamate]
